# Patent publication US20210030646A1, “AN ANTIMICROBIAL COMPOSITION COMPRISING ESSENTIAL OIL AND ANTIMICROBIAL LIPID” (Conopco, Inc., d/b/a UNILEVER, priority 2017, published 2021)
# Test system: P. acnes (ATCC 6919)
# Assay: ΣFIC assay against P. acnes (checkerboard MIC, alamar blue)
# Assay type: cell-based, Propionibacterium acne (P. acnes)
# Settings: P. acnes ATCC 6919 in LB, anaerobic 37° C. 50 hours, lowest concentration giving complete growth inhibition; for MIC: Cutibacterium acnes, ATCC6919, single active alone, read-out: MIC (Minimum Inhibition Concentration)
# Method: Synergistic interaction between the essential oil active and the AML compounds was determined using the ΣFIC assay against P. acnes. A brief description of the method is given below.
# Methods: ΣFIC Assay Against P. acnes
# P. acnes (ATCC 6919) is inoculated on Reinforced Clostridial Medium Agar plate (RCMA, solution A) and cultured anaerobically in an anaerobic jar at 37° C. for 72 to 96 hours. A single colony was cultured into Reinforced Clostridial Medium (RCM, solution B) and incubated anaerobically at 37° C. for 72 to 96 hours. Final cell density is adjusted to around 5×10^7 cells/ml by diluting using RCM. Then the inoculum is further diluted 1:1000 into Luria-Bertani medium (LB, solution C) to get around 5*10^4 cell/ml.
# Essential oil active was serially diluted (2-fold) to prepare in a range of 10 to 10,000 ppm in the LB growth medium. The AML compound was serially diluted (2-fold) to prepare in a range of 15.6 to 1000 ppm for sapienic acid, and palmitoleic acid; and 2-125 ppm for other AMLs in the LB growth medium.
# Binary combinations of essential oil and AML compound were prepared in 96-well plate by mixing 20 μl of essential oil solution with 20 μl of AML compound. The solution in each well were further mixed with 160 μl of P. acnes in LB. The final cell density in the testing plate is around 4*10^4 cell/ml, and the final concentration of actives in each well of the 96-well plate were shown below.
# The fatty acid AML sapienic acid and palmitoleic acid compound concentrations (in ppm): 100, 50, 25, 12.5, 6.25, 3.13, 1.56, and 0. The sphingosine AML compound concentrations (in ppm): 12.5, 6.3, 3.1, 1.6, 0.8, 0.4, 0.2 and 0.
# The plate was incubated anaerobically at 37° C. for 50 hours. Then 20 μl of alamar blue (0.01%) was added into each well with a further incubation aerobically for two to three days to observe the color change. Red color indicates microbial growth and the non-changing blue color indicates no growth. In addition, it was also confirmed that the testing compound alone will not cause color change of alamar blue with a control mixture without adding microbes.
# The MIC is defined as the absolute lowest concentration of active that provides complete microbial growth inhibition as indicated by the blue color of alamar blue under the tested condition.
# The differing behaviour of inhibitory antimicrobials in isolation and mixtures have been widely explored using the concept of the Fractional Concentration (FC) and Fractional Inhibitory Concentration (FIC). The parameter can be defined as follows: […]
# These relationships can be expressed mathematically by summing the fractional MIC values for all the components present in the mixture to give the “fractional inhibition index”. There is no consistent approach in the academic or patent literature in defining precise limiting ΣFIC values that differentiate synergy from additivity or antagonism. In this study, we have adopted a liberal approach defining any binary mixture with ΣFIC<0.9 as showing evidence of synergistic behavior.
# ΣFIC=FIC (component 1)+FIC (component 2)
# ΣFIC=1 corresponds to additive microbial activity
# ΣFIC>1 corresponds to antagonistic microbial activity
# ΣFIC<0.9 corresponds to synergistic microbial activity
# Based on the concentration range of the essential oil actives (0 to 1000 ppm) and the AML compound (0 to 100 ppm) at which the experiments were carried out, the ΣFIC of the combinations is given below in Table-1.
SMILES,MIC (Minimum Inhibition Concentration) (single active alone) [ppm],MIC [µg/mL]
CCCCCCCCCCCCCCC[C@@H](O)[C@@H](N)CO [dihydrosphingosine],0.2,–
Cc1ccc(C(C)C)c(O)c1 [thymol],–,62.5

# Second part, the compound after the results:
MIC (Minimum Inhibition Concentration) (single active alone) [ppm],MIC [µg/mL],SMILES
–,1,CCCCCC/C=C\CCCCCCCC(=O)O [palmitoleic acid]
–,0.2,CCCCCCCCCCCCCC[C@@H](O)[C@@H](O)[C@@H](N)CO [phytosphingosine]
–,0.4,CCCCCCCCCCCCC/C=C/[C@@H](O)[C@@H](N)CO [sphingosine]
